Test [1] concerns the target T1, HSV-1 protease (Human herpesvirus 1, UniProt P10210).
T1 construct: 6xHis (N); made in house; host or cells: baculovirus expression system
As to the kind of experiment: Enzymatic assay for HSV-1 protease (assembly) inhibitor, fluorescence polarization. It is filed as biochemical. The conditions noted are these: read-out: HSV-1 Enzyme inhibition IC50. Here is the method: An enzymatic assay method for an HSV-1 protease (assembly) inhibitor
The activity of an assembly protease was determined by fluorescence polarization. Biotin-gamma-amino butyrate-[…]-DTAF was used as a fluorescent substrate in accordance with an HSV-1 release and cleavage site. […] Changes in the sizes of fluorescent substrate molecules that increased with the use of avidin as a reaction terminator were assayed by fluorescence polarization.
The test compound was dissolved in DMF, and the resultant was diluted 5-fold with an assay buffer. 6.5 μl thereof was added to wells of a 96-well plate (a U-bottomed 96-well plate, Coster) that had previously been blocked with a blocking solution (10 mM Tris-HCl (pH 8.0), 150 mM sodium chloride, 0.05% Tween 20, 1 mg/ml of BSA). The enzyme was diluted to 21.3 μg/ml with an assay buffer (1M sodium citrate, 50 mM sodium phosphate (pH 7.4), 100 mM sodium chloride, 20% glycerol, 2 mM TCEP), and 48.5 μl of the resultant was added to each well. The plate was incubated at room temperature for 30 minutes, and 10 μl of 62.5 μg/ml substrate solution was then added to each well. The plate was incubated at room temperature for 60 minutes, and 50 μl of 2 mg/ml avidin phosphate buffer solution (50 mM sodium phosphate, 100 mM sodium chloride (pH 7.4)) was added to each well. The activity was determined in comparison with a compound without protease inhibitor using a microplate reader for fluorescence polarization.
HSV-1 protease was purified from a vaculovirus that had expressed a DNA construct encoding the reading frame for HSV-1UL26. This construct had further encoded 6 histidine residues at the amino terminus of the protease. These additional histidine residues impart affinity ligands purified by nickel-nitriloacetic acid-agarose (Qiagen). The purified protease was stored as a stock solution for a 20 mM HEPES buffer (pH 8.5, containing 20% v/v glycerin). This stock solution was diluted with an assay buffer and then used in the enzyme reaction.
In accordance with the cleavage specificity of the HSV-1 protease at the “release site” of the assembled protein, a specific substrate was synthesized (Diianni et al., J. Biol. Chem. 268, 2048 (1993)). This assembly protein-release site had the sequence • HTYLQA*SEKFKMW • , and the substrate used was biotin-gamma-amino butyrate-HTYLQA*SERFRIK-DTAF. This is a standard method for peptide synthesis, for example, as in the a method described in “The Practice of Peptide Synthesis” (Bodansky and Bodansky (1984)). The product was stored as a 2.5 mg/ml stock solution in DMF. The resultant was diluted to 62.5 μg/ml with a phosphate buffer (50 mM sodium phosphate, 100 mM sodium chloride, (pH 7.4)) immediately before its use.
An assay buffer (1M sodium citrate, 50 mM sodium phosphate (pH 7.4), 100 mM sodium chloride, 20% glycerol, 2 mM TCEP) was used to dilute a stock solution for the enzyme and that for the inhibitor.

The subject of test [2] is HSV-1. As to the kind of experiment: Antiviral activity, HSV-1 in Vero cells, plaque method. It is filed as cell-based. The conditions noted are these: 90% inhibition of plaque formation. Here is the method: An Assay Method for Antiviral Activity These complementary assay methods examine the capacity of a compound to inhibit the generation of new viruses and to inhibit the toxicity of the compound against the host cell. Toxicity indirectly decreases the generation of viruses. Thus, it is important to simultaneously conduct both assays in order to directly compare the results. The Vero cells were sown on a 96-well plate and then cultured overnight. The culture supernatant was removed, and 100 μl of 2% FBS-DMEM containing 50,000 plaque-forming units (hereinafter abbreviated as “pfu”) of HSV-1 was added. A viral solution was removed and 200 μl of 2% FBS-DMEM comprising a test compound was added. In this case, a substance to which 2% FBS-DMEM not comprising any test compound had been added was determined as a control. These infected cells were incubated in the presence of 5% CO2 at 37° C. for 20 hours, and the medium was once allowed to freeze at −80° C. The culture solution was dissolved, and the amount of viruses in the culture solution was assayed by the plaque method. The concentration of the test compound when it inhibited 90% of plaque formation relative to the control was determined to be EC 90.

Setting [3] is: Human alphaherpesvirus 1, 20 hours.

SMILES strings stand for the structures.

T1 sequence (P10210 1-247): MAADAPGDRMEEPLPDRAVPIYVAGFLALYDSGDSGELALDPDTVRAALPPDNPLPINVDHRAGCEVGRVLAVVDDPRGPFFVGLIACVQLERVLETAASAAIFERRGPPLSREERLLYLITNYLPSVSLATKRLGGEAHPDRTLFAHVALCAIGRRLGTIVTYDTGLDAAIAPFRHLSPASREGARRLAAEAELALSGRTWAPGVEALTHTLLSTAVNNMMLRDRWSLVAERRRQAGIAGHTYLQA

Turning to `Cc1c(NC(=O)OC(C)(C)C)ccc2nc(NC3(C(=O)N(C)Cc4cccnc4)CC3)oc(=O)c12` [Compound No.118, {5-Methyl-2-[1-(methyl-pyridin-3-ylmethyl-carbamoyl)-cyclopropylamino]-4-oxo-4H-benzo[d][1,3]oxazin-6-yl}-carbamic acid tert-butyl ester], the IC50 in test [1] was 2300 nM. The EC90 in test [2] (setting [3]) was greater than 12500 nM.

Consider `Cc1c(NC(=O)CCNC(=O)c2ccc(C(F)(F)F)cc2)ccc2nc(NC(C)(C)C(=O)N(C)CCc3ccccn3)oc(=O)c12` [Compound No.210, N-[2-(5-Methyl-2-{1-methyl-1-[methyl-(2-pyridin-2-yl-ethyl)-carbamoyl]-ethylamino}-4-oxo-4H-benzo[d][1,3]oxazin-6-ylcarbamoyl)-ethyl]-4-trifluoromethyl-benzamide], for which the IC50 in test [1] was determined as 700 nM. The EC90 in test [2] (setting [3]) is greater than 12500 nM.

For `Cc1c(NC(=O)CCCNC(=O)OC(C)(C)C)ccc2nc(NC(C)(C)C(=O)N(C)CCc3ccccn3)oc(=O)c12` [Compound No.203, [3-(5-Methyl-2-{1-methyl-1-[methyl-(2-pyridin-2-yl-ethyl)-carbamoyl]-ethylamino}-4-oxo-4H-benzo[d][1,3]oxazin-6-ylcarbamoyl)-propyl]-carbamic acid tert-butyl ester], in test [1], the IC50 is 400 nM. This molecule also came in with an EC90 in test [2] (setting [3]) greater than 12500 nM.

As for `Cc1c(NC(=O)OC(C)(C)C)ccc2nc(NCCC(=O)N(C)CCc3ccccn3)oc(=O)c12` [Compound No.133, (5-Methyl-2-{2-[methyl-(2-pyridin-2-yl-ethyl)-carbamoyl]-ethylamino}-4-oxo-4H-benzo[d][1,3]oxazin-6-yl)-carbamic acid tert-butyl ester], the IC50 in test [1] came out at 900 nM. In test [2] (setting [3]), this molecule gave an EC90 greater than 20000 nM.

On to `CCCCc1ccc(C(=O)NCCCC(=O)Nc2ccc3nc(NC(C)(C)C(=O)N(C)CCc4ccccn4)oc(=O)c3c2C)cc1` [Compound No.214, 4-Butyl-N-[3-(5-methyl-2-{1-methyl-1-[methyl-(2-pyridin-2-yl-ethyl)-carbamoyl]-ethylamino}-4-oxo-4H-benzo[d][1,3]oxazin-6-ylcarbamoyl)-propyl]-benzamide], for which, in test [1], the IC50 amounted to 300 nM. Besides, the EC90 in test [2] (setting [3]) is greater than 12500 nM.

For the molecule `Cc1c(NC(=O)CCCNC(=O)c2cccs2)ccc2nc(NC(C)(C)C(=O)N(C)CCc3ccccn3)oc(=O)c12` [Compound No.212, Thiophene-2-carboxylic acid [3-(5-methyl-2-{1-methyl-1-[methyl-(2-pyridin-2-yl-ethyl)-carbamoyl]-ethylamino}-4-oxo-4H-benzo[d][1,3]oxazin-6-ylcarbamoyl)-propyl]-amide], the IC50 in test [1] worked out at 300 nM. In addition, the EC90 in test [2] (setting [3]) is greater than 12500 nM.

`Cc1c(NC(=O)OC(C)(C)C)ccc2nc(NC(C)(C)C(=O)N(C)CCc3ccccc3)oc(=O)c12` [compound 229, {5-Methyl-2-[1-methyl-1-(methyl-phenethyl-carbamoyl)-ethylamino]-4-oxo-4H-benzo[d][1,3]oxazin-6-yl}-carbamic acid tert-butyl ester, reference compound]: the 50% inhibitory concentration (IC50) in test [1] turned out to be 12200 nM. It took 6600 nM to reach the 90% level in test [2] (setting [3]) (EC90).

With `Cc1c(NC(=O)CCCNC(=O)c2ccc(C(F)(F)F)cc2)ccc2nc(NC(C)(C)C(=O)N(C)CCc3ccccn3)oc(=O)c12` [Compound No.213, N-[3-(5-Methyl-2-{1-methyl-1-[methyl-(2-pyridin-2-yl-ethyl)-carbamoyl]-ethylamino}-4-oxo-4H-benzo [d][1,3]oxazin-6-ylcarbamoyl)-propyl]-4-trifluoromethyl-benzamide], the IC50 in test [1] came to 300 nM. The molecule also gave an EC90 in test [2] (setting [3]) greater than 12500 nM.

For `Cc1c(NC(=O)c2cccs2)ccc2nc(NC(C)(C)C(=O)N(C)CCc3ccccn3)oc(=O)c12` [Compound No.134, Thiophene-2-carboxylic Acid (5-methyl-2-{1-methyl-1-[methyl-(2-pyridin-2-yl-ethyl)-carbamoyl]-ethylamino}-4-oxo-4H-benzo[d][1,3]oxazin-6-yl)-amide], in test [1], the IC50 was 900 nM. In test [2] (setting [3]), the EC90 is greater than 12500 nM.

In the case of `Cc1c(NC(=O)OC(C)(C)C)ccc2nc(NC3(C(=O)N(C)Cc4cccnc4)CCCC3)oc(=O)c12` [Compound No.119, {5-Methyl-2-[1-(methyl-pyridin-3-ylmethyl-carbamoyl)-cyclopentylamino]-4-oxo-4H-benzo[d][1,3]oxazin-6-yl}-carbamic acid tert-butyl ester], in test [1], the IC50 was 700 nM. In addition, the EC90 in test [2] (setting [3]) is greater than 12500 nM.

Consider `Cc1c(NC(=O)CCCNC(=O)OCc2ccccc2)ccc2nc(N[C@@H](C)C(=O)N(C)CCc3ccccn3)oc(=O)c12` [Compound No.208, [3-(5-Methyl-2-{1S-[methyl-(2-pyridin-2-yl-ethyl)-carbamoyl]-ethylamino}-4-oxo-4H-benzo[d][1,3]oxazin-6-ylcarbamoyl)-propyl]-carbamic acid benzyl ester], for which the IC50 in test [1] turned out to be 200 nM. Further, the EC90 in test [2] (setting [3]) is greater than 12500 nM.

Take `CCC(CC)C(=O)Nc1ccc2nc(NC(C)(C)C(=O)N(C)CCc3ccccn3)oc(=O)c2c1C` [Compound No.197, 2-Ethyl-N-(5-methyl-2-{1-methyl-1-[methyl-(2-pyridin-2-yl-ethyl)-carbamoyl]-ethylamino}-4-oxo-4H-benzo[d][1,3]oxazin-6-yl)-butylamide]: in test [1], the IC50 worked out at 7200 nM. Further, the EC90 in test [2] (20 hours) is no less than 12500 nM.

In the case of `Cc1c(NC(=O)OC(C)(C)C)ccc2nc(N[C@H](C)C(=O)N(C)CCc3ccccn3)oc(=O)c12` [Compound No.132, (5-Methyl-2-{1R-[methyl-(2-pyridin-2-yl-ethyl)-carbamoyl]-ethylamino}-4-oxo-4H-benzo[d][1,3]oxazin-6-yl)-carbamic acid tert-butyl ester], the half-inhibitory concentration (IC50) in test [1] amounted to 800 nM. In test [2] (setting [3]), this molecule displayed an EC90 of 15800 nM.

For the molecule `Cc1c(NC(=O)CCNC(=O)c2cccs2)ccc2nc(NC(C)(C)C(=O)N(C)CCc3ccccn3)oc(=O)c12` [Compound No.209, thiophene-2-carboxylic acid [2-(5-methyl-2-{1-methyl-1-[methyl-(2-pyridin-2-yl-ethyl)-carbamoyl]-ethylamino}-4-oxo-4H-benzo[d][1,3]oxazin-6-ylcarbamoyl)-ethyl]-amide], the IC50 in test [1] is 900 nM. Further, in test [2] (setting [3]), the EC90 is greater than 12500 nM.

`Cc1c(NC(=O)OC(C)(C)C)ccc2nc(NC3(C(=O)N(C)CCc4cccnc4)CCCC3)oc(=O)c12` [Compound No.126, (5-Methyl-2-{1-[methyl-(2-pyridin-3-yl-ethyl)-carbamoyl]-cyclopentylamino}-4-oxo-4H-benzo[d][1,3]oxazin-6-yl)-carbamic acid tert-butyl ester]: the half-maximal inhibitory concentration (IC50) in test [1] was determined as 400 nM. In test [2] (setting [3]), this molecule returned an EC90 of 8600 nM.

In the case of `Cc1c(NC(=O)OC(C)(C)C)ccc2nc(NC3(C(=O)N(C)CCc4ccccn4)CCCC3)oc(=O)c12` [Compound No.123, (5-Methyl-2-{1-[methyl-(2-pyridin-2-yl-ethyl)-carbamoyl]-cyclopentylamino}-4-oxo-4H-benzo[d][1,3]oxazin-6-yl)-carbamic acid tert-butyl ester], in test [1], the IC50 came out at 600 nM. This molecule also gave an EC90 in test [2] (setting [3]) of 9600 nM.

Turning to `Cc1c(NC(=O)OC(C)(C)C)ccc2nc(N(C)CC(=O)N(C)CCc3ccccn3)oc(=O)c12` [Compound No.131, [5-Methyl-2-(methyl-{[methyl-(2-pyridin-2-yl-ethyl)-carbamoyl]-methyl}-amino)-4-oxo-4H-benzo[d][1,3]oxazin-6-yl]-carbamic acid tert-butyl ester], the half-maximal inhibitory concentration (IC50) in test [1] was determined as 400 nM. In test [2] (setting [3]), this molecule returned an EC90 greater than 20000 nM.

The values are drawn from patent US20040116420A1 (priority 2001, published 2004).
